Results: patent US10287297B2, “Epoxyazulene derivatives useful for treating cancer and diabetes” (The United States of America, as represented by the …, priority 2015, dated 2019)

Experiments:
Assay type in all cases: cell-based
HL-60(TB) = test: NCI 60 cell assay, leukemia HL-60(TB); conditions: Homo sapiens, 48 h; HL-60(TB) (leukemia); drug exposure two days, SRB endpoint; read-out: GI-50 value
Experimental: (§1) Samples were tested in the standard National Cancer Institute 60-cell line protocol. First, they were tested against all 60 cell lines in a single final concentration of 10 micromolar. Then, they were separately tested in five 10-fold dilutions. The drug exposure was two days, with an SRB endpoint.

COLO 205 = test: NCI 60 cell assay, colon COLO 205; conditions: Homo sapiens, 48 h; COLO 205 (colon); drug exposure two days, SRB endpoint; read-out: GI-50 value
Experimental: as §1

IGROV1 = test: NCI 60 cell assay, ovarian IGROV1; conditions: Homo sapiens, IGROV-1, 48 h, drug exposure two days, SRB endpoint, read-out: GI-50 value
Experimental: as §1

K-562 = test: NCI 60 cell assay, leukemia K-562; conditions: Homo sapiens, K562, 48 h; K-562 (leukemia); drug exposure two days, SRB endpoint; read-out: GI-50 value
Experimental: as §1

SN12C = test: NCI 60 cell assay, renal SN12C; conditions: Homo sapiens, 48 h, drug exposure two days, SRB endpoint, read-out: GI-50 value
Experimental: as §1

HCT-116 = test: NCI 60 cell assay, colon HCT-116; conditions: Homo sapiens, 48 h; HCT-116 (colon); drug exposure two days, SRB endpoint; read-out: GI-50 value
Experimental: as §1

KM12 = test: NCI 60 cell assay, colon KM12; conditions: Homo sapiens, 48 h, drug exposure two days, SRB endpoint, read-out: GI-50 value
Experimental: as §1

BT-549 = test: NCI 60 cell assay, breast BT-549; conditions: Homo sapiens, 48 h; BT-549 (breast); drug exposure two days, SRB endpoint; read-out: GI-50 value
Experimental: as §1

TK-10 = test: NCI 60 cell assay, renal TK-10; conditions: Homo sapiens, 48 h; TK-10 (renal); drug exposure two days, SRB endpoint; read-out: GI-50 value
Experimental: as §1

CCRF-CEM = test: NCI 60 cell assay, leukemia CCRF-CEM; conditions: Homo sapiens, 48 h, drug exposure two days, SRB endpoint, read-out: GI-50 value
Experimental: as §1

UO-31 = test: NCI 60 cell assay, renal UO-31; conditions: Homo sapiens, 48 h; UO-31 (renal); drug exposure two days, SRB endpoint; read-out: GI-50 value
Experimental: as §1

786-0 = test: NCI 60 cell assay, renal 786-0; conditions: Homo sapiens, 48 h; 786-0 (renal); drug exposure two days, SRB endpoint; read-out: GI-50 value
Experimental: as §1

A498 = test: NCI 60 cell assay, renal A498; conditions: Homo sapiens, 48 h, drug exposure two days, SRB endpoint, read-out: GI-50 value
Experimental: as §1

PC-3 = test: NCI 60 cell assay, prostate PC-3; conditions: Homo sapiens, 48 h; PC-3 (prostate); drug exposure two days, SRB endpoint; read-out: GI-50 value
Experimental: as §1

SK-MEL-2 = test: NCI 60 cell assay, melanoma SK-MEL-2; conditions: Homo sapiens, 48 h; SK-MEL-2 (melanoma); drug exposure two days, SRB endpoint; read-out: GI-50 value
Experimental: as §1

NCI-H522 = test: NCI 60 cell assay, NSCLC NCI-H522; conditions: Homo sapiens, 48 h, drug exposure two days, SRB endpoint, read-out: GI-50 value
Experimental: as §1

HOP-92 = test: NCI 60 cell assay, NSCLC HOP-92; conditions: Homo sapiens, 48 h; HOP-92 (NSCLC); drug exposure two days, SRB endpoint; read-out: GI-50 value
Experimental: as §1

RPMI-8226 = test: NCI 60 cell assay, leukemia RPMI-8226; conditions: Homo sapiens, 48 h; RPMI-8226 (leukemia); drug exposure two days, SRB endpoint; read-out: GI-50 value
Experimental: as §1

OVCAR-8 = test: NCI 60 cell assay, ovarian OVCAR-8; conditions: Homo sapiens, 48 h; OVCAR-8 (ovarian); drug exposure two days, SRB endpoint; read-out: GI-50 value
Experimental: as §1

MDA-MB-231/ATCC = test: NCI 60 cell assay, breast MDA-MB-231/ATCC; conditions: Homo sapiens, 48 h; MDA-MB-231/ATCC (breast); drug exposure two days, SRB endpoint; read-out: GI-50 value
Experimental: as §1

RXF 393 = test: NCI 60 cell assay, renal RXF 393; conditions: Homo sapiens, 48 h; RXF 393 (renal); drug exposure two days, SRB endpoint; read-out: GI-50 value
Experimental: as §1

HCT-15 = test: NCI 60 cell assay, colon HCT-15; conditions: Homo sapiens, 48 h; HCT-15 (colon); drug exposure two days, SRB endpoint; read-out: GI-50 value
Experimental: as §1

LOX IMVI = test: NCI 60 cell assay, melanoma LOX IMVI; conditions: Homo sapiens, 48 h, drug exposure two days, SRB endpoint, read-out: GI-50 value
Experimental: as §1

A549/ATCC = test: NCI 60 cell assay, NSCLC A549/ATCC; conditions: Homo sapiens, 48 h, drug exposure two days, SRB endpoint, read-out: GI-50 value
Experimental: as §1

SF-295 = test: NCI 60 cell assay, CNS SF-295; conditions: Homo sapiens, 48 h; SF-295 (CNS); drug exposure two days, SRB endpoint; read-out: GI-50 value
Experimental: as §1

NCI/ADR-RES = test: NCI 60 cell assay, ovarian NCI/ADR-RES; conditions: Homo sapiens, 48 h, drug exposure two days, SRB endpoint, read-out: GI-50 value
Experimental: as §1

SNB-75 = test: NCI 60 cell assay, CNS SNB-75; conditions: Homo sapiens, 48 h; SNB-75 (CNS); drug exposure two days, SRB endpoint; read-out: GI-50 value
Experimental: as §1

EKVX = test: NCI 60 cell assay, NSCLC EKVX; conditions: Homo sapiens, 48 h, drug exposure two days, SRB endpoint, read-out: GI-50 value
Experimental: as §1

| SMILES | GI50 (HL-60(TB)) | GI50 (COLO 205) | GI50 (IGROV1) | GI50 (K-562) | GI50 (SN12C) | GI50 (HCT-116) | GI50 (KM12) | GI50 (BT-549) | GI50 (TK-10) | GI50 (CCRF-CEM) | GI50 (UO-31) | GI50 (786-0) | GI50 (A498) | GI50 (PC-3) | GI50 (SK-MEL-2) | GI50 (NCI-H522) | GI50 (RPMI-8226) | GI50 (OVCAR-8) | GI50 (MDA-MB-231/ATCC) | GI50 (RXF 393) | also measured |
| --- | --- | --- | --- | --- | --- | --- | --- | --- | --- | --- | --- | --- | --- | --- | --- | --- | --- | --- | --- | --- | --- |
| CC1=C2[C@@H](CC1)[C@]1(C)O[C@@](C(C)C)(C[C@H]1OC(=O)CO)[C@H]2OC(=O)/C=C/c1ccccc1 [Compound (Ih)] | 35 µM | 44 µM | 46 µM | 38 µM | 20 µM | 33 µM | 40 µM | 0.14 µM | 100 µM | 42 µM | 0.04 µM | 35 µM | 0.034 µM | 26 µM | 44 µM | 40 µM | 27 µM | 0.09 µM | 39 µM | 0.13 µM | GI50 (HOP-92): 100 µM; GI50 (HCT-15): 32 µM; GI50 (LOX IMVI): 42 µM; GI50 (A549/ATCC): 33 µM; GI50 (SF-295): 40 µM; GI50 (NCI/ADR-RES): 0.13 µM; GI50 (SNB-75): 2.9 µM |
| CC1=C2[C@@H](CC1)[C@]1(C)O[C@@](C(C)C)(C[C@H]1OC(=O)CO)[C@H]2OC(=O)C1CC1c1ccccc1 (stereo partly drawn) [Compound (Ij), (3aR,4S,5R,7R,8S)-5-(2-hydroxyacetoxy)-7-isopropyl-1,4-dimethyl-2,3,3a,4,5,6,7,8-octahydro-4,7-epoxyazulen-8-yl-2-phenylcyclopropane-1-carboxylate] | 14 µM | 17 µM | 19 µM | 15 µM | 7.4 µM | 19 µM | 13 µM | 14 µM | 17 µM | 18 µM | 11 µM | 15 µM | 0.27 µM | 9 µM | 16 µM | 13 µM | 13 µM | 13 µM | 15 µM | 0.069 µM | GI50 (HOP-92): 13 µM; GI50 (EKVX): 13 µM; GI50 (HCT-15): 13 µM; GI50 (LOX IMVI): 15 µM; GI50 (A549/ATCC): 13 µM; GI50 (SF-295): 13 µM; GI50 (NCI/ADR-RES): 12 µM; GI50 (SNB-75): 15 µM |
| CC1=C2[C@@H](CC1)[C@]1(C)O[C@@](C3CCCCC3)(C[C@H]1OC(=O)CO)[C@H]2OC(=O)C=Cc1ccccc1 [(Iq), (3aR,4S,5R,7R,8S)-7-cyclohexyl-5-(2-hydroxyacetoxy)-1,4-dimethyl-2,3,3a,4,5,6,7,8-octahydro-4,7-epoxyazulen-8-yl cinnamate] | 15 µM | 15 µM | 19 µM | 13 µM | 0.06 µM | 9 µM | 14 µM | 0.5 µM | 17 µM | 15 µM | 0.46 µM | 13 µM | 0.021 µM | 12 µM | 17 µM | 15 µM | 10 µM | 0.1 µM | 18 µM | 0.025 µM | GI50 (HOP-92): 6 µM; GI50 (EKVX): 11 µM; GI50 (HCT-15): 10 µM; GI50 (LOX IMVI): 14 µM; GI50 (A549/ATCC): 11 µM; GI50 (SF-295): 12 µM; GI50 (NCI/ADR-RES): 0.25 µM; GI50 (SNB-75): 14 µM |
| CC1=C2[C@@H](CC1)[C@]1(C)O[C@@](C3CC3)(C[C@H]1OC(=O)CO)[C@H]2OC(=O)C=Cc1ccccc1 [Compound (Is), (3aR,4S,5R,7R,8S)-7-cyclopropyl-5-(2-hydroxyacetoxy)-1,4-dimethyl-2,3,3a,4,5,6,7,8-octahydro-4,7-epoxyazulen-8-yl cinnamate] | 12 µM | 19 µM | 19 µM | 20 µM | 0.052 µM | 16 µM | 17 µM | 0.21 µM | 19 µM | 19 µM | 0.33 µM | 13 µM | 0.11 µM | 15 µM | 19 µM | 17 µM | 20 µM | 0.054 µM | 18 µM | 0.014 µM | GI50 (HOP-92): 17 µM; GI50 (EKVX): 14 µM; GI50 (HCT-15): 14 µM; GI50 (LOX IMVI): 17 µM; GI50 (A549/ATCC): 14 µM; GI50 (SF-295): 17 µM; GI50 (NCI/ADR-RES): 0.071 µM; GI50 (SNB-75): 13 µM |
| CC(=O)O[C@@H]1C[C@]2(C(C)C)O[C@@]1(C)[C@@H]1CCC(C)=C1[C@@H]2OC(=O)C=Cc1ccccc1 [(Im), (3aR,4S,5R,7R,8S)-5-acetoxy-7-isopropyl-1,4-dimethyl-2,3,3a,4,5,6,7,8-octahydro-4,7-epoxyazulen-8-yl cinnamate] | 25 µM | 32 µM | 100 µM | 34 µM | 10 µM | 16 µM | 40 µM | 51 µM | 93 µM | 32 µM | 20 µM | 85 µM | 2.2 µM | 8 µM | 100 µM | 21 µM | 10 µM | 9 µM | 49 µM | 8.9 µM | GI50 (EKVX): 20 µM; GI50 (HCT-15): 32 µM; GI50 (LOX IMVI): 30 µM; GI50 (A549/ATCC): 47 µM; GI50 (SF-295): 39 µM; GI50 (NCI/ADR-RES): 23 µM; GI50 (SNB-75): 28 µM |
